Measured values as given in PMC12040169 (PLOS Biology, 2025).

Experiment: in vitro
Conditions: human, hela cells, % viability

Question: With `Cc1ncc(-c2ccc3ccccc3c2)s1` [CBK019439B] as the molecule, how does the viability at 28.5 h, 10 µM read?
Answer: 91.5%

Question: With `CCn1c(SCc2nc(-c3ccc(Br)cc3)no2)nnc1-c1c[nH]c2ccccc12` [CBK268668] as the molecule, how does the viability at 28.5 h, 10 µM read?
Answer: 94.3%

Question: With `c1csc(CN2CCC(c3cc4nccnc4[nH]3)CC2)c1` [CBK281520] as the molecule, how does the viability at 28.5 h, 10 µM read?
Answer: 88.9%

Question: With `CC(C)Cn1c(=O)[nH]c2ncc(-c3cncnc3)nc21` [CBK064177] as the molecule, how does the viability at 28.5 h, 10 µM read?
Answer: 90.1%

Question: Which viability at 28.5 h, 10 µM does the source give for `O=C(Nc1cccnc1N1CCNCC1)c1ccccn1` [CBK029425T] here?
Answer: 116%

Question: With `CCN(CC)CCNC(=O)c1ccc(C(=O)O)c(C)n1` [CBK304248] as the molecule, how does the viability at 28.5 h, 10 µM read?
Answer: 85.9%

Question: With `COc1ccccc1CN(C)C(C)C(=O)Nc1ccc(S(N)(=O)=O)cc1` (centres unmarked) [CBK305839] as the molecule, how does the viability at 28.5 h, 10 µM read?
Answer: 90.1%

Question: Which viability at 28.5 h, 10 µM does the source give for `O=C(c1csnn1)N1Cc2ccccc2C1` [CBK200325] here?
Answer: 111%

Question: For `O=[N+]([O-])c1ccccc1OCCCn1cnc2ccccc21` [CBK267820G], which viability at 28.5 h, 10 µM is on record?
Answer: 44.2%

Question: For `CC(C)(C)c1nc(NS(=O)(=O)c2ccc(Cl)cc2)sc1Br` [CBK014258], which viability at 28.5 h, 10 µM is on record?
Answer: 102%

Question: With `COc1ccc(C2=C(CC(=O)O)C(=O)CC2)cc1` [CBK264812] as the molecule, how does the viability at 28.5 h, 10 µM read?
Answer: 89.2%

Question: For `CN(C)S(=O)(=O)c1ccc2c(c1)nc1n2CCC1` [CBK115558], which viability at 28.5 h, 10 µM is on record?
Answer: 71.4%

Question: With `CN1CCN(c2cc(CNC(=O)c3cc(=O)[nH]c4ccccc34)ccn2)CC1` [CBK279658] as the molecule, how does the viability at 28.5 h, 10 µM read?
Answer: 101%

Question: For `COc1cc(C=O)ccc1OC(=O)c1nsc(Cl)c1Cl` [CBK266619], which viability at 28.5 h, 10 µM is on record?
Answer: 89.1%

Question: With `O=C1c2ccccc2C(=O)N1Cc1ccc(S(=O)(=O)NCc2ccc3c(c2)OCO3)cc1` [CBK264180] as the molecule, how does the viability at 28.5 h, 10 µM read?
Answer: 98.3%

Question: Which viability at 28.5 h, 10 µM does the source give for `Cc1cc(C)nc(NCCC(=O)O)n1` [CBK270154] here?
Answer: 89.1%

Question: Which viability at 28.5 h, 10 µM does the source give for `O=C(NCCCc1ccccn1)c1cc(-c2cccs2)no1` [CBK282652] here?
Answer: 63.9%

Question: With `CCOc1cc(C(c2c[nH]c3ccccc23)c2c[nH]c3ccccc23)cc([N+](=O)[O-])c1O` [CBK266061] as the molecule, how does the viability at 28.5 h, 10 µM read?
Answer: 101%

Question: With `CC(C)Nc1nc2ccccc2nc1SCCc1ccncc1` [CBK103670] as the molecule, how does the viability at 28.5 h, 10 µM read?
Answer: 87.8%

Question: Which viability at 28.5 h, 10 µM does the source give for `NS(=O)(=O)c1ccc2c(c1)N(Cc1nc(-c3ccco3)no1)CC2` [CBK304291] here?
Answer: 71.9%

Question: For `O=C(Nc1ncn(CC(=O)N2CCCCCC2)n1)c1cccs1` [CBK304953], which viability at 28.5 h, 10 µM is on record?
Answer: 78.1%

Question: For `CC(C)c1ccc(S(=O)(=O)Nc2ccc(O)c(Sc3nc[nH]n3)c2)cc1` [CBK266861], which viability at 28.5 h, 10 µM is on record?
Answer: 90.8%

Question: For `Cc1ccc(CNC(=O)OCCN2CCN(C)CC2)n1C` [CBK200287], which viability at 28.5 h, 10 µM is on record?
Answer: 86.8%

Question: Which viability at 28.5 h, 10 µM does the source give for `Nc1nonc1-n1nnc(C(=O)N/N=C/c2ccc([N+](=O)[O-])cc2)c1-c1ccccc1` [CBK261992] here?
Answer: 86.4%

Question: With `OCCN1CCN(c2nc(-c3cc(Cl)cc(Cl)c3)cn3ccnc23)CC1` [CBK066558] as the molecule, how does the viability at 28.5 h, 10 µM read?
Answer: 94.1%

Question: For `COc1cc(C2CN=NC23Cc2ccccc2C3=O)cc(OC)c1OC` (centres unmarked) [CBK019341], which viability at 28.5 h, 10 µM is on record?
Answer: 90.4%

Question: For `CC1=NN(c2ccccc2)C(=O)/C1=C\c1cn(CCC(=O)O)nc1-c1cc2ccccc2o1` [CBK265252], which viability at 28.5 h, 10 µM is on record?
Answer: 88.1%

Question: For `OCc1ccccc1-c1cn2ccnc2c(Nc2ccc(N3CCOCC3)cc2)n1` [CBK037956], which viability at 28.5 h, 10 µM is on record?
Answer: 85.8%

Question: With `CC(C)[C@H]1CN(Cc2ccco2)CCN1Cc1ccco1` [CBK284271] as the molecule, how does the viability at 28.5 h, 10 µM read?
Answer: 79.3%

Question: With `Cc1cccc2[nH]c(-c3ccccc3)nc12` [CBK000110] as the molecule, how does the viability at 28.5 h, 10 µM read?
Answer: 92.9%

Question: For `Cc1ccc(SCc2ccc(C(=O)Nc3ccccc3C(=O)N3CCCC3)cc2)cc1` [CBK268217], which viability at 28.5 h, 10 µM is on record?
Answer: 112%

Question: For `CN1CCC(OC(=O)COc2ccc(Cl)cc2Cl)CC1` [CBK266389C], which viability at 28.5 h, 10 µM is on record?
Answer: 91%

Question: With `CCc1nc2ccc(C(=O)NC3=NN(c4ccccc4)C(=O)C3)cn2c1N(C)Cc1cccs1` [CBK145557] as the molecule, how does the viability at 28.5 h, 10 µM read?
Answer: 93%

Question: For `CN(C)CCNC(=O)c1cccc(-c2cncc(NCc3ccc4c(c3)OCO4)n2)c1` [CBK065361], which viability at 28.5 h, 10 µM is on record?
Answer: 110%

Question: Which viability at 28.5 h, 10 µM does the source give for `COc1ncc(-c2nccnc2NCCc2ccncc2)c(OC)n1` [CBK038074] here?
Answer: 96.7%

Question: For `N#CCCn1cc(C(=O)n2nnc3ccccc32)c(-c2cc3ccccc3o2)n1` [CBK268073], which viability at 28.5 h, 10 µM is on record?
Answer: 103%

Question: With `Cc1nnc(CN(CC2CCCO2)C2CCCC2)n1C1CC1` (centres unmarked) [CBK304147] as the molecule, how does the viability at 28.5 h, 10 µM read?
Answer: 95.5%

Question: With `O=C(Cn1c(NCCCO)nc2ccccc21)c1cccs1` [CBK023894B] as the molecule, how does the viability at 28.5 h, 10 µM read?
Answer: 96.5%

Question: With `CC(CNC(=O)C(C)(C)C)NC(=O)C(C)(C)C` (centres unmarked) [CBK265443] as the molecule, how does the viability at 28.5 h, 10 µM read?
Answer: 93.6%

Question: For `CC(=O)Nc1ccc(CCC2(NC(=O)C3CC3)CCCCC2)cn1` [CBK282290], which viability at 28.5 h, 10 µM is on record?
Answer: 87.4%

Question: Which viability at 28.5 h, 10 µM does the source give for `C=CCNS(=O)(=O)c1ccc(NC(=O)Cc2cccc3ccccc23)cc1` [CBK269379] here?
Answer: 109%

Question: Which viability at 28.5 h, 10 µM does the source give for `O=C(O)c1ccc(CN2C[C@H](O)C[C@H]2c2nc(-c3ccc(F)cc3)no2)cc1` [CBK288870] here?
Answer: 112%

Question: With `Cc1c(C(=O)O)sc(S(=O)(=O)N2CCN(C(=O)CC(C)c3ccccc3)CC2)c1C(=O)O` (centres unmarked) [CBK297143] as the molecule, how does the viability at 28.5 h, 10 µM read?
Answer: 97.4%

Question: For `CN1CCOc2cc(S(=O)(=O)Nc3cccnc3N3CCOCC3)ccc21` [CBK062299], which viability at 28.5 h, 10 µM is on record?
Answer: 108%

Question: With `CCn1nc(C)c(C2NC(=O)c3ccccc3N2)c1C` (centres unmarked) [CBK288214] as the molecule, how does the viability at 28.5 h, 10 µM read?
Answer: 88.6%

Question: For `Cc1nc2ccc(C(=O)NCCn3ccnc3C)cc2s1` [CBK282477], which viability at 28.5 h, 10 µM is on record?
Answer: 88.1%

Question: With `COCCN(C)C(=O)c1cn2cc(-c3cc(C)oc3C)n(C)c(=O)c2n1` [CBK306605] as the molecule, how does the viability at 28.5 h, 10 µM read?
Answer: 80.5%

Question: With `FC(F)(F)c1ccc2c(c1)N(CCCN1CCCC1)c1ccccc1S2` [CBK015520C] as the molecule, how does the viability at 28.5 h, 10 µM read?
Answer: 88%

Question: For `COc1cc(-c2cn3ccnc3c(N[C@@H]3CCN(Cc4ccccc4)C3)n2)cc(OC)c1OC` [CBK037385], which viability at 28.5 h, 10 µM is on record?
Answer: 113%

Question: For `Cc1cc2c(o1)c1cnn(CC(=O)N3CCC(C)CC3)c(=O)c1n2C` [CBK284236], which viability at 28.5 h, 10 µM is on record?
Answer: 83.9%

Question: For `O=S1(=O)CCCN1c1ccc2[nH]ncc2c1` [CBK010263], which viability at 28.5 h, 10 µM is on record?
Answer: 102%

Question: For `N=C(N)SCc1ncccc1O` [CBK278318C], which viability at 28.5 h, 10 µM is on record?
Answer: 102%

Question: With `O=C(NCC(c1ccco1)N1CCCC1)C1CCCCC1` (centres unmarked) [CBK304560] as the molecule, how does the viability at 28.5 h, 10 µM read?
Answer: 88.7%

Question: Which viability at 28.5 h, 10 µM does the source give for `COc1ccc(-c2ccccc2)cc1NS(=O)(=O)c1ccc2c(c1)CCC(=O)N2` [CBK286368] here?
Answer: 100%

Question: For `Cc1ccc(OCC(=O)N2CCN(S(=O)(=O)c3ccccc3[N+](=O)[O-])CC2)cc1` [CBK264260], which viability at 28.5 h, 10 µM is on record?
Answer: 98.5%

Question: Which viability at 28.5 h, 10 µM does the source give for `Cc1cc(NCc2ccccc2)nc2ccccc12` [CBK262206] here?
Answer: 93.5%

Question: For `CN(C)CCCC(=O)N1CCN(C(=O)c2ccco2)CC1` [CBK144445], which viability at 28.5 h, 10 µM is on record?
Answer: 111%

Question: With `COCc1cccc(-c2nccnc2Oc2cccc(OC)c2)c1` [CBK106958] as the molecule, how does the viability at 28.5 h, 10 µM read?
Answer: 90.6%

Question: With `O=C1N[C@H]2CCCN(C(=O)CCN3CCCC3)[C@H]2C/C=C/CCOc2ccccc21` [CBK292162] as the molecule, how does the viability at 28.5 h, 10 µM read?
Answer: 112%

Question: For `c1coc(-c2cn3ccnc3c(NCCc3ccncc3)n2)c1` [CBK037333], which viability at 28.5 h, 10 µM is on record?
Answer: 93.5%

Question: For `Cc1nn(C)c2ncc(S(=O)(=O)Nc3ccc(F)cn3)cc12` [CBK305175], which viability at 28.5 h, 10 µM is on record?
Answer: 95.1%

Question: With `CCOC(=O)c1nc(C)sc1-c1ccnn1S(C)(=O)=O` [CBK007130] as the molecule, how does the viability at 28.5 h, 10 µM read?
Answer: 108%

Question: With `Cc1nc(C)c(C(=O)N2CCC(c3cc4c(C)cccc4cn3)CC2)o1` [CBK285186] as the molecule, how does the viability at 28.5 h, 10 µM read?
Answer: 108%

Question: With `CCn1cc(C(=O)O)c(=O)c2cc(F)c(N(C)CCc3ccc(OC)c(OC)c3)cc21` [CBK263070] as the molecule, how does the viability at 28.5 h, 10 µM read?
Answer: 97.1%

Question: For `O=C(C1=C(O)C(=O)N(CCCn2ccnc2)C1c1ccncc1)c1ccccc1` (centres unmarked) [CBK264527], which viability at 28.5 h, 10 µM is on record?
Answer: 91.6%
